Data on 30 compounds can be found in patent publication US20250188057A1, “NON-AROMATIC CYCLIC-PYRIMIDINE ANALOGS AS GLUCOSYLCERAMIDE SYNTHASE INHIBITORS” (Merck Sharp & Dohme LLC, priority 2022, published 2025).

In the experiment the target is glucosylceramide synthase (GCS) (Homo sapiens (Human), UniProt Q16739). The experiment in a line: UDP-Glo glucosylceramide synthase biochemical assay. The note with it: endogenous GCS in Golgi preparations isolated from human A375 malignant melanoma skin cells; UDP detection by luminescence. The text has this: A UDP-Glo™ glucosylceramide synthase biochemical assay was utilized to evaluate the effect of test compounds on the activity of endogenous levels of GCS enzyme contained within Golgi preparations isolated from human A375 malignant melanoma skin cells. The UDP-Glo™ glucosylceramide synthase assay uses UDP-Glucose as a nucleotide-glycosyl donor and ceramide as substrate acceptor molecules. In the reaction, glucosylceramide synthase (GCS) transfers glucose from UDP-Glucose to ceramide. Glucosylceramide and UDP are released as products.
Sequence of glucosylceramide synthase (GCS) (Q16739 whole entry): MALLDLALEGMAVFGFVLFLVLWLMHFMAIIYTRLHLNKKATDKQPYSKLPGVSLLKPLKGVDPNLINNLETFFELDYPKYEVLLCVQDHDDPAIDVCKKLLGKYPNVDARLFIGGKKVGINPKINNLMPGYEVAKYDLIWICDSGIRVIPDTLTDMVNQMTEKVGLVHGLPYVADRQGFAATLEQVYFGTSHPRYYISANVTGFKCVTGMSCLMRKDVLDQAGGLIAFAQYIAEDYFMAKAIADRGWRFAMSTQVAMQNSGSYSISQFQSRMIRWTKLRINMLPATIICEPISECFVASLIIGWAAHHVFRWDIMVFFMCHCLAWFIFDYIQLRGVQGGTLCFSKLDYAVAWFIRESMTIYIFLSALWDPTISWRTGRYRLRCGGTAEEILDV
Using Promega's UDP-Glo™ Glycosyltransferase assay kit (Promega Corporation, Madison, WI, USA (Promega)), GCS activity was indirectly measured by detecting the amount of UDP produced. An aliquot of GCS enzyme (1.5 μg crude golgi preparation, total protein) and titrated test compound were aliquoted to each well and incubated for 30 minutes at room temperature. […] An equivalent volume of substrate mixture was then added to each well. Following a 20 h incubation at room temperature to allow for GCS turnover of substrate, an equal volume of UDP detection reagent (Promega) was added to each well and incubated for an additional 75 minutes at room temperature to simultaneously convert the accumulated UDP product into ATP and generate light in a luciferase reaction. The generated light was detected using a luminometer. […] luminescence values (RLUs) were normalized to mean “min” and “max” effects, as determined on each plate. “Min” was defined as the mean of the values of the wells treated with vehicle (DMSO) and which represent 0% inhibition; “max” was defined as the mean of the values of the wells treated with a reference inhibitor and which represent the 100% effect. Values for % Emax and EC50 were determined by best-fitting the normalized data to a curve in Activity Base along a four-parameter logistic nonlinear regression (4PL) model (based on the Levenberg-Marquardt algorithm and defined by the equation below): […]
where: n is 4PMin (bottom of the curve); m is 4PMax (top of the curve); i is IP (inflection point of curve); and p is slope. See Levenberg, K., “A Method for the Solution of Certain Problems in Least Squares”, Quart. Appl. Math. 2, (1944), pp 164-168 and Marquardt, D., “An Algorithm for Least Squares Estimation on Nonlinear Parameters”, SIAM J. Appl. Math 11, (1963) pp 431-441.
Compound `N#Cc1cnc(C2CC2)nc1OC[C@H]1CCN(c2cnc(-n3cccn3)cn2)C1` [Compound 56, (S)-4-((1-(5-(1H-pyrazol-1-yl)pyrazin-2-yl)pyrrolidin-3-yl)methoxy)-2-cyclopropylpyrimidine-5-carbonitrile] showed an IC50 of 161 nM.

`N#Cc1cnc(C2CC2)nc1OCC1CCN(c2ccc(Cl)cc2)C1` (stereo not drawn) [Compound 57, 4-((1-(4-chlorophenyl)pyrrolidin-3-yl)methoxy)-2-cyclopropylpyrimidine-5-carbonitrile]: the IC50 is 20 nM.

For `N#Cc1cnc(C2CC2)nc1OCC1CCN(c2ccc(Cl)cc2)C1` (stereo not drawn) [Compound 58, 4-((1-(4-chlorophenyl)pyrrolidin-3-yl)methoxy)-2-cyclopropylpyrimidine-5-carbonitrile], the IC50 came to 156 nM.

The compound `N#Cc1cnc(C2CC2)nc1OCC1CCCN1c1ccccc1` (stereo not drawn) [Compound 59, 2-cyclopropyl-4-((1-phenylpyrrolidin-2-yl)methoxy)pyrimidine-5-carbonitrile] had an IC50 of 363 nM.

Compound `N#Cc1cnc(C2CC2)nc1OC1CN(Cc2ccc(F)cc2)C1` [Compound 60, 2-cyclopropyl-4-((1-(4-fluorobenzyl)azetidin-3-yl)oxy)pyrimidine-5-carbonitrile] displayed an IC50 of 3950 nM.

As to `N#Cc1cnc(C2CC2)nc1OC[C@H]1C[C@@H]1c1ccc(F)cn1` [Compound 61, 2-cyclopropyl-4-(((1S,2S)-2-(5-fluoropyridin-2-yl)cyclopropyl)methoxy)pyrimidine-5-carbonitrile], it took 1030 nM to reach half-maximal inhibition (IC50).

For the compound `N#Cc1cnc(C2CC2)nc1OC[C@@H]1C[C@H]1c1ccc(F)cn1` [Compound 62, 2-cyclopropyl-4-(((1R,2R)-2-(5-fluoropyridin-2-yl)cyclopropyl)methoxy)pyrimidine-5-carbonitrile], the IC50 was 983 nM.

Compound `COc1ccc2c(c1)C(Nc1nc(C3CC3)ncc1C#N)CC2` (stereo not drawn) [Compound 63, 2-cyclopropyl-4-((6-methoxy-2,3-dihydro-1H-inden-1-yl)amino)pyrimidine-5-carbonitrile] yielded an IC50 of 8.6 nM.

For `N#Cc1cnc(C2CC2)nc1N1CCC2(CC1)Cc1cc(F)ccc1O2` [Compound 64, 2-cyclopropyl-4-(5-fluoro-3H-spiro[benzofuran-2,4′-piperidin]-1′-yl)pyrimidine-5-carbonitrile], half-maximal inhibition (IC50) was put at 1350 nM.

With `N#Cc1cnc(C2CC2)nc1N1Cc2cccn3c(C(=O)NCC4CC4)cc(c23)C1` [Compound 65, 2-(5-cyano-2-cyclopropylpyrimidin-4-yl)-N-(cyclopropylmethyl)-2,3-dihydro-1H-pyrrrolo[3,2,1-ij][1,6]naphthyridine-5-carboxamide], the IC50 came to 119 nM.

With `N#Cc1cnc(C2CC2)nc1N1CCc2nc[nH]c2C1c1cccc(F)c1` (stereo not drawn) [Compound 66, 2-cyclopropyl-4-(4-(3-fluorophenyl)-3,4,6,7-tetrahydro-5H-imidazo[4,5-c]pyridin-5-yl)pyrimidine-5-carbonitrile], the midpoint of inhibition, the IC50, lay at 2040 nM.

With `CNC(=O)[C@]12CN(c3nc(C4CC4)ncc3C#N)C[C@H]1C(c1ccc(C)cc1)=NO2` [Compound 67, (3aS,6aR)-5-(5-cyano-2-cyclopropylpyrimidin-4-yl)-N-methyl-3-(p-tolyl)-3a,4,5,6-tetrahydro-6aH-pyrrolo[3,4-d]isoxazole-6a-carboxamide], the IC50 is 207 nM.

With `N#Cc1cnc(C2CC2)nc1N1CCOCC1c1ccccc1F` (stereo not drawn) [Compound 68, 2-cyclopropyl-4-(3-(2-fluorophenyl)morpholino)pyrimidine-5-carbonitrile], the IC50 worked out at 546 nM.

With `N#Cc1cnc(C2CC2)nc1N1CCc2c(sn(Cc3ccc(F)cc3)c2=O)C1` [Compound 69, 2-cyclopropyl-4-(2-(4-fluorobenzyl)-3-oxo-3,4,5,7-tetrahydroisothiazolo[5,4-c]pyridin-6(2H)-yl)pyrimidine-5-carbonitrile], the midpoint of inhibition, the IC50, lay at 2760 nM.

For `N#Cc1cnc(C2CC2)nc1N1CCN(Cc2nc(-c3ccc(Cl)cc3)no2)CC1` [Compound 70, 4-(4-((3-(4-chlorophenyl)-1,2,4-oxadiazol-5-yl)methyl)piperazin-1-yl)-2-cyclopropylpyrimidine-5-carbonitrile], the IC50 turned out to be 877 nM.

`CC(C)N1C(=O)[C@]2(c3ccsc3)CN(c3nc(C4CC4)ncc3C#N)C[C@@H]2S1(=O)=O` [Compound 71, 2-cyclopropyl-4-((3aS,6aR)-2-isopropyl-1,1-dioxido-3-oxo-3a-(thiophen-3-yl)hexahydro-5H-pyrrolo[3,4-d]isothiazol-5-yl)pyrimidine-5-carbonitrile] returned an IC50 of 832 nM.

In the case of `N#Cc1cnc(C2CC2)nc1N1CC2CCCC1CN(Cc1ccccc1)C2` (stereo not drawn) [Compound 72, 4-(3-benzyl-3,9-diazabicyclo[3.3.2]decan-9-yl)-2-cyclopropylpyrimidine-5-carbonitrile], inhibition was half-maximal at 1860 nM (IC50).

As to `N#Cc1cnc(C2CC2)nc1N1CCC(O)(c2cccc(C(F)(F)F)c2)CC1` [Compound 73, 2-cyclopropyl-4-(4-hydroxy-4-(3-(trifluoromethyl)phenyl)piperidin-1-yl)pyrimidine-5-carbonitrile], the IC50 worked out at 1110 nM.

With `N#Cc1cnc(C2CC2)nc1N(CC1CCCO1)CC1CC2C=CC1C2` (stereo not drawn) [Compound 74, 4-((bicyclo[2.2.1]hept-5-en-2-ylmethyl)((tetrahydrofuran-2-yl)methyl)amino)-2-cyclopropylpyrimidine-5-carbonitrile], the IC50 is 278 nM.

The compound `N#Cc1cnc(C2CC2)nc1N1CCC2(CC1)NC(=O)Nc1ccccc12` [Compound 75, 2-cyclopropyl-4-(2′-oxo-2′,3′-dihydro-1′H-spiro[piperidine-4,4′-quinazolin]-1-yl)pyrimidine-5-carbonitrile] gave an IC50 of 1090 nM.

In the case of `N#Cc1cnc(C2CC2)nc1N1CCCC(c2cc3cccnc3[nH]2)C1` (stereo not drawn) [Compound 76, 4-(3-(1H-pyrrolo[2,3-b]pyridin-2-yl)piperidin-1-yl)-2-cyclopropylpyrimidine-5-carbonitrile], it took 1480 nM to reach half-maximal inhibition (IC50).

The compound `CCNC(=O)[C@]12CN(c3nc(C4CC4)ncc3C#N)C[C@H]1C(Oc1ccccc1)=NO2` [Compound 77, (3aR)-5-(5-cyano-2-cyclopropylpyrimidin-4-yl)-N-ethyl-3-phenoxy-3a,4,5,6-tetrahydro-6aH-pyrrolo[3,4-b]isoxazole-6a-carboxamide] showed an IC50 of 655 nM.

In turn, `N#Cc1cnc(C2CC2)nc1N1CCC(N2CCN(Cc3ccc(F)cc3)S2(=O)=O)CC1` [Compound 78, 2-cyclopropyl-4-(4-(5-(4-fluorobenzyl)-1,1-dioxido-1,2,5-thiadiazolidin-2-yl)piperidin-1-yl)pyrimidine-5-carbonitrile] returned an IC50 of 1800 nM.

Compound `N#Cc1cnc(C2CC2)nc1N1CCN(Cc2ccccc2)C[C@@H]1COCc1ccccc1` [Compound 79, (R)-4-(4-bnezyl-2-((benzyloxy)methyl)piperazin-1-yl)-2-cyclopropylpyrimidine-5-carbonitrile] gave a half-inhibitory concentration (IC50) of 3260 nM.

For the compound `COC(=O)C[C@@H]1COc2cc(OC3CN(c4nc(C5CC5)ncc4C#N)C3)ccc21` [Compound 80, methyl (S)-2-(6-((1-(5-cyano-2-cyclopropylpyrimidin-4-yl)azetidin-3-yl)oxy)-2,3-dihydrobenzofuran-3-yl)acetate], half-maximal inhibition (IC50) required 303 nM.

`COC[C@@H](c1ccc(C(F)(F)F)cc1)N1CCN(c2nc(C3CC3)ncc2C#N)C[C@@H]1C` [Compound 81, 2-cyclopropyl-4-((S)-4-((R)-2-methoxy-1-(4-(trifluoromethyl)phenyl)ethyl)-3-methylpiperazin-1-yl)pyrimidine-5-carbonitrile]: the IC50 was 584 nM.

The compound `N#Cc1cnc(C2CC2)nc1NC1CCN(Cc2ccccc2)C1c1ccccc1` (stereo not drawn) [Compound 82, 4-((1-benzyl-2-phenylpyrrolidin-3-yl)amino)-2-cyclopropylpyrimidine-5-carbonitrile] returned an IC50 of 770 nM.

Compound `N#Cc1cnc(C2CC2)nc1N1CCC(N(C2CC2)S(=O)(=O)c2ccccc2)CC1` [Compound 83, N-(1-(5-cyano-2-cyclopropylpyrimidin-4-yl)piperidin-4-yl)-N-cyclopropylbenzenesulfonamide] registered an IC50 of 1590 nM.

The compound `N#Cc1cnc(C2CC2)nc1NC(c1ccccc1)C1(N2CCCCC2)CCC1` (stereo not drawn) [Compound 84, 2-cyclopropyl-4-((phenyl(1-(piperidin-1-yl)cyclobutyl)methyl)amino)pyrimidine-5-carbonitrile] registered an IC50 of 1240 nM.

In the case of `CNC(=O)C12CN(c3nc(C4CC4)ncc3C#N)CC1C(c1ccc(C)cc1)=NO2` (stereo not drawn) [Compound 85, 5-(5-cyano-2-cyclopropylpyrimidin-4-yl)-N-methyl-3-(p-tolyl)-3a,4,5,6-tetrahydro-6aH-pyrrolo[3,4-d]isoxazole-6a-carboxamide], half-maximal inhibition (IC50) required 168 nM.

For orientation: IC50 means the concentration that inhibits the measured activity by half. Low readings indicate higher potency, high ones lower potency.
